From US20240400591A1 (Jacobio Pharmaceuticals Co., Ltd., priority 2021, published 2024) come the findings set out here.

Where two headings read alike, the source gives them in different places.

Assay [1] addresses T1, His-p53 Y220C (94-294) protein (Homo sapiens, UniProt P04637, Y220C).
T1 construct: His-p53 Y220C (94-294) protein
The experiment in a line: In vitro DNA binding assay (HTRF). The assay is classed as biochemical. The settings on record: % activation normalized to 2 μM Ref-1a high control. (In general: Time-resolved FRET reads energy transfer from a long-lived donor to a nearby acceptor.)

In a further assay the test system is NUGC3 (P53 Y220C). Description: Cell viability assay (CellTiter-Glo, 6 days), NUGC3. The assay is classed as cell-based. The procedure, abridged:
(§1)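 After a 6-day compound exposure following overnight plating, ATP luminescence (CellTiter-Glo) gave percent viability relative to DMSO-treated cells and cell-free medium controls. IC50 = concentration at 50% viability, from 4-parameter logistic or Excel fit.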

Another assay relates to NUGC4 (P53 WT). The experiment in a line: Cell viability assay (CellTiter-Glo, 6 days), NUGC4. The assay is classed as cell-based. The procedure, abridged:
as §1
(In ATP-based viability assays light output follows the ATP content of the culture.)

Assay [2] concerns NUGC-3_P53_Luc single clonal cell line (p53 Y220C). The experiment in a line: Reporter gene assay (p53 RE luciferase). The format is cell-based. The procedure, abridged:
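Luminescence normalised to DMSO-only (0%) and 10 μM Ref-1a (100%) wells gives % activity, fitted by 4-parameter logistic or Excel to yield EC50 at 50%. Reporter line: NUGC-3 with p53 response element-luc2P, compound-treated 6 h at 37 °C.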
For orientation: A reporter such as luciferase makes a cellular process visible.

[3] abbreviates: Homo sapiens, NUGC-3, 144 h, cell viability, 6 days, CellTiter-Glo, read-out: NUGC3 (P53 Y220C) IC50.
Where [4] appears, read: Homo sapiens, NUGC-4, 144 h, cell viability, 6 days, CellTiter-Glo, read-out: NUGC4 (P53 WT) IC50.
Where [5] appears, read: Homo sapiens, NUGC-3, 6 h, luciferase reporter, 6 hours, normalized to Ref-1a (10 μM) high control, read-out: p53(Y220C)_NUGC-3 EC50.
Setting [6] is: Homo sapiens, NUGC-3, luciferase reporter, 6 hours, normalized to Ref-1a (10 μM) high control, read-out: p53(Y220C)_NUGC-3 EC50.

As to `COc1cc(C(=O)NC2CCN(C)CC2F)ccc1NCC#Cc1sc2c(NC3CCN(C)CC3F)cccc2c1CC(F)(F)F` (centres unmarked) [Example 68, N-(3-fluoro-1-methylpiperidin-4-yl)-4-((3-(7-(((Z)-3-fluoro-1-methylpiperidin-4-yl)amino)-3-(2,2,2-trifluoroethyl)benzo[b]thiophen-2-yl)prop-2-yn-1-yl)amino)-3-methoxybenzamide], the EC50 – broadly, the midpoint of the concentration-response curve – in assay [1] was 44 nM; in assay [2] (luciferase reporter, 6 hours, normalized to Ref-1a (10 μM) high control, read-out: p53(Y220C)_NUGC-3 EC50), 0.64 µM. Moreover, the IC50 (as a rule, the midpoint of a concentration-inhibition curve) in the assay on NUGC3 (P53 Y220C) (cell viability, 6 days, CellTiter-Glo, read-out: NUGC3 (P53 Y220C) IC50) was 1.08 µM; in the assay on NUGC4 (P53 WT) (cell viability, 6 days, CellTiter-Glo, read-out: NUGC4 (P53 WT) IC50), 1.39 µM.

In the case of `CN1CC[C@@H](Nc2cccc3c(CC(F)(F)F)c(C#CCNc4ccc(P(C)(C)=O)cc4F)sc23)[C@@H](F)C1` [Example 84, (3-fluoro-4-((3-(7-(((3S,4R)-3-fluoro-1-methylpiperidin-4-yl)amino)-3-(2,2,2-trifluoroethyl)benzo[b]thiophen-2-yl)prop-2-yn-1-yl)amino)phenyl)dimethylphosphine oxide], the EC50 in assay [1] came to 45 nM; in assay [2] (setting [5]), 0.17 µM. In addition, the IC50 is 1.42 µM in the assay on NUGC3 (P53 Y220C) (setting [3]) and 11.5 µM in the assay with NUGC4 (P53 WT) (setting [4]).

In the case of `COc1cc(P(C)(C)=O)ccc1NCC#Cc1sc2c(NC3CCN(C)CC34CC4)cccc2c1CC(F)(F)F` (centres unmarked) [Example 89, (3-methoxy-4-((3-(7-((5-methyl-5-azaspiro[2.5]octan-8-yl)amino)-3-(2,2,2-trifluoroethyl)benzo[b]thiophen-2-yl)prop-2-yn-1-yl)amino)phenyl)dimethylphosphine oxide], the EC50 was found to be 53 nM in assay [1] and 0.23 µM in assay [2] (setting [6]). Also, the IC50 with NUGC3 (P53 Y220C) (setting [3]) was determined as 0.82 µM; with NUGC4 (P53 WT) (setting [4]), 4.54 µM.

For the compound `COc1cc(P(C)(C)=O)ncc1NCC#Cc1sc2c(N[C@@H]3CCN(C)C[C@@H]3F)cccc2c1CC(F)(F)F` [Example 92, (5-((3-(7-(((3S,4R)-3-fluoro-1-methylpiperidin-4-yl)amino)-3-(2,2,2-trifluoroethyl)benzo[b]thiophen-2-yl)prop-2-yn-1-yl)amino)-4-methoxypyridin-2-yl)dimethylphosphine oxide], the EC50 in assay [1] was 47 nM; in assay [2] (setting [6]) it was 0.18 µM. Also, the IC50 is 0.99 µM in the assay on NUGC3 (P53 Y220C) (setting [3]) and 13.4 µM with NUGC4 (P53 WT) (setting [4]).

As for `CN1CC[C@@H](Nc2cccc3c(CC(F)(F)F)c(C#CCNc4ccc(P(C)(C)=O)cc4C(F)(F)F)sc23)[C@@H](F)C1` [Example 105, (4-((3-(7-(((3S,4R)-3-fluoro-1-methylpiperidin-4-yl)amino)-3-(2,2,2-trifluoroethyl)benzo[b]thiophen-2-yl)prop-2-yn-1-yl)amino)-3-(trifluoromethyl)phenyl)dimethylphosphine oxide], the figures for the EC50 in assay [1] and in assay [2] (setting [5]) were 35 nM and 0.2 µM, respectively. For the same compound, the IC50 with NUGC3 (P53 Y220C) (setting [3]) was found to be 1.83 µM; in the assay on NUGC4 (P53 WT) (setting [4]) it was 10 µM.

For the compound `CNC(=O)c1ccc(NCC#Cc2cc3c(N[C@@H]4CCN(C)C[C@@H]4F)cccc3n2CC(F)(F)F)c(OC)c1` [Example 110, 4-((3-(4-(((3S,4R)-3-fluoro-1-methylpiperidin-4-yl)amino)-1-(2,2,2-trifluoroethyl)-1H-indol-2-yl)prop-2-yn-1-yl)amino)-3-methoxy-N-methylbenzamide], the EC50 in assay [1] turned out to be 27 nM; in assay [2] (setting [5]), 0.04 µM. The IC50 in the assay on NUGC3 (P53 Y220C) (setting [3]) worked out at 1.02 µM; with NUGC4 (P53 WT) (setting [4]), 14.2 µM.

Turning to `CNC(=O)c1ccc(NCC#Cc2cc3c(N[C@H]4CCN(C)C[C@H]4F)cccc3n2CC(F)(F)F)c(OC)c1` [Example 111, 4-((3-(4-(((3R,4S)-3-fluoro-1-methylpiperidin-4-yl)amino)-1-(2,2,2-trifluoroethyl)-1H-indol-2-yl)prop-2-yn-1-yl)amino)-3-methoxy-N-methylbenzamide], the EC50 in assay [1] was determined as 101 nM; in assay [2] (setting [5]), 0.16 µM. Moreover, the IC50 stood at 1.84 µM with NUGC3 (P53 Y220C) (setting [3]) and 13.1 µM in the assay on NUGC4 (P53 WT) (setting [4]).

On to `CNC(=O)c1ccc(NCC#Cc2sc3c(N[C@H]4CCN(C)C[C@H]4F)cccc3c2CC(F)(F)F)c(OC)c1` [Example 112, 4-((3-(7-(((3R,4S)-3-fluoro-1-methylpiperidin-4-yl)amino)-3-(2,2,2-trifluoroethyl)benzo[b]thiophen-2-yl)prop-2-yn-1-yl)amino)-3-methoxy-N-methylbenzamide], for which the EC50 worked out at 135 nM in assay [1] and 0.27 µM in assay [2] (setting [5]). In addition, the IC50 in the assay with NUGC3 (P53 Y220C) (setting [3]) is 2.09 µM; in the assay on NUGC4 (P53 WT) (setting [4]), 7.51 µM.

In the case of `CNC(=O)c1ccc(NCC#Cc2sc3c(N[C@@H]4CCN(C)C[C@@H]4F)cccc3c2CC(F)(F)F)c(OC)c1` [Example 113, 4-((3-(7-(((3S,4R)-3-fluoro-1-methylpiperidin-4-yl)amino)-3-(2,2,2-trifluoroethyl)benzo[b]thiophen-2-yl)prop-2-yn-1-yl)amino)-3-methoxy-N-methylbenzamide], the figures for the EC50 in assay [1] and in assay [2] (setting [5]) were 44 nM and 0.07 µM, respectively. The IC50 in the assay with NUGC3 (P53 Y220C) (setting [3]) was 0.93 µM; in the assay on NUGC4 (P53 WT) (setting [4]) it was 6.1 µM.

As to `COc1cc(P(C)(C)=O)ccc1NCC#Cc1sc2c(N[C@H]3CCN(C)C[C@H]3F)cccc2c1CC(F)(F)F` [Example 114, (4-((3-(7-(((3R,4S)-3-fluoro-1-methylpiperidin-4-yl)amino)-3-(2,2,2-trifluoroethyl)benzo[b]thiophen-2-yl)prop-2-yn-1-yl)amino)-3-methoxyphenyl)dimethylphosphine oxide], the EC50 in assay [1] was found to be 57 nM; in assay [2] (setting [5]) it was 0.12 µM. Also, the IC50 in the assay with NUGC3 (P53 Y220C) (setting [3]) came to 1.24 µM; with NUGC4 (P53 WT) (setting [4]), 10.5 µM.

For the compound `COc1cc(P(C)(C)=O)ccc1NCC#Cc1sc2c(N[C@@H]3CCN(C)C[C@@H]3F)cccc2c1CC(F)(F)F` [Example 115, (4-((3-(7-(((3S,4R)-3-fluoro-1-methylpiperidin-4-yl)amino)-3-(2,2,2-trifluoroethyl)benzo[b]thiophen-2-yl)prop-2-yn-1-yl)amino)-3-methoxyphenyl)dimethylphosphine oxide], the values for the EC50 in assay [1] and in assay [2] (setting [5]) were 23 nM and 0.03 µM, respectively. Also, the IC50 in the assay with NUGC3 (P53 Y220C) (setting [3]) is 0.24 µM; with NUGC4 (P53 WT) (setting [4]), 8.58 µM.

Consider `COc1cc(P2(=O)CCCC2)ccc1NCC#Cc1sc2c(N[C@@H]3CCN(C)C[C@@H]3F)cccc2c1CC(F)(F)F` [Example 117, 1-(4-((3-(7-(((3S,4R)-3-fluoro-1-methylpiperidin-4-yl)amino)-3-(2,2,2-trifluoroethyl)benzo[b]thiophen-2-yl)prop-2-yn-1-yl)amino)-3-methoxyphenyl)phospholane 1-oxide], for which the EC50 in assay [1] stood at 34 nM; in assay [2] (Homo sapiens, NUGC-3, 6 h, read-out: p53(Y220C)_NUGC-3 EC50 (μM)) it was 0.17 µM. Further, the IC50 was 0.93 µM with NUGC3 (P53 Y220C) (Homo sapiens, NUGC-3, 144 h, read-out: NUGC3 (P53 Y220C) IC50 (μM)) and 8.54 µM with NUGC4 (P53 WT) (Homo sapiens, NUGC-4, 144 h, read-out: NUGC4 (P53 WT) IC50 (μM)).

As for `COc1cc(P(C)(C)=O)ccc1NCC#Cc1sc2c(NC3C4CCC3CN(C)C4)cccc2c1CC(F)(F)F` (centres unmarked) [Example 124, (3-methoxy-4-((3-(7-((3-methyl-3-azabicyclo[3.2.1]octan-8-yl)amino)-3-(2,2,2-trifluoroethyl)benzo[b]thiophen-2-yl)prop-2-yn-1-yl)amino)phenyl)dimethylphosphine oxide], the EC50 in assay [1] is 143 nM; in assay [2] (setting [6]), 0.47 µM. Also, the results for the concentration for half-maximal inhibition (IC50) in the assay with NUGC3 (P53 Y220C) (setting [3]) and with NUGC4 (P53 WT) (setting [4]) were 2.31 µM and 7.23 µM, respectively.

Turning to `COc1cc(P(C)(C)=O)ccc1NCC#Cc1sc2c(N[C@H]3CCN(C)C[C@H]3C)cccc2c1CC(F)(F)F` [Example 125, (4-((3-(7-(((3R,4S)-1,3-dimethylpiperidin-4-yl)amino)-3-(2,2,2-trifluoroethyl)benzo[b]thiophen-2-yl)prop-2-yn-1-yl)amino)-3-methoxyphenyl)dimethylphosphine oxide], the figures for the EC50 in assay [1] and in assay [2] (setting [5]) were 54 nM and 0.18 µM, respectively. Also, the IC50 was 1.27 µM with NUGC3 (P53 Y220C) (setting [3]) and 2.57 µM with NUGC4 (P53 WT) (setting [4]).
